From PMC7182600 (Influenza and Other Respiratory Viruses, 2020)
Values joined by “and” are separate entries in the source; they are usually repeats but may differ in a detail not shown here. Equal entries are not always repeated.

Target: NA of B/Tokyo/UT‐AC032/2018 (G407S) (Influenza B virus, UniProt A0A1W5M8K7, G407S)
Assay type: biochemical

Compound	susceptibility to NA inhibitor (in words)	fold differences in IC50	IC50 (read-out: IC50 values of NA inhibitors)
[H]/N=C(\N)N[C@H]1C=C(C(=O)O)O[C@@H]([C@H](OC)[C@H](O)CO)[C@@H]1NC(C)=O [Laninamivir]	marked reduction in susceptibility		
CCC(CC)O[C@@H]1C=C(C(=O)O)C[C@H](N)[C@H]1NC(C)=O [Oseltamivir carboxylate]	moderately reduced susceptibility		
CC(=O)N[C@H]1[C@H]([C@H](O)[C@H](O)CO)OC(C(=O)O)=C[C@@H]1N=C(N)N [Zanamivir]	marked reduction in susceptibility		
Peramivir	marked reduction in susceptibility	64 fold and 32.1 ± 12.9 (64.2) fold	32.1 nM
